Results as given in paper PMC8536644, “Enigmatic mechanism of the N-vinylpyrrolidone hepatocarcinogenicity in the rat” (Archives of Toxicology, 2021).
Several values for one entry are separate records, joined by “and”; a condition that tells them apart may be missing. Equal entries are not always repeated.

Experiments:
[1] = Trypan Blue viability of the single cell suspension, lung; type: in vivo, rat; settings: Wistar, rat, in vivo, po, 200 mg/kg
rat lung cells = experiment: Comet assay, conventional (no FPG), lung; settings: no FPG; for Increase of the TI vs vehicle control / Hedgehogs/100 cells (mean ± SD) / TI (%) (mean ± SD) / TI (%), mean of medians from 2 slides: lung; for Increase of the TI vs vehicle control: p ≤ 0.01; for Hedgehogs/100 cells (mean ± SD) / TI (%) (mean ± SD) / TI (%), mean of medians from 2 slides: 200 mg/kg bw oral, once; for TI (%), mean of medians from 2 slides: individual animals
Protocol: (§1) Animals were anesthetized by 3.5% isoflurane (approximately 3 min, evaporator Dräger Vapor 19.3) and then killed by cervical dislocation. The liver was removed and its left lateral lobe used for the Comet assay. The remainder of the liver was washed in saline and then in two aliquots shock frozen in liquid nitrogen and stored at − 80 °C for later examinations. Subsequently the lung was removed from the dead animal. Its left lobe was used for the Comet assay and the remainder treated as described above for the liver. Thereafter the femora were removed for the preparation of the bone marrow.
(§2) The Comet assay was performed under alkaline conditions according to the principles described by Singh et al. ([1988]) and Tice et al. ([2000]).
(§3) Liver and lung cells were obtained essentially as described by Hartmann et al. ([2004]) and by the Japanese Center for the Validation of Alternative Methods (JaCVAM [2009]). Single cells were obtained within 1 h after killing of the animals in order to minimize DNA damage during the preparation.
(§4) The organ parts (see above) were washed in mincing buffer (50 mM EDTA in HBSS [without Ca^2+ and Mg^2+] pH 7.5: DMSO 9:1 (v/v), the latter added shortly before use, stored at 4 °C), cut into 1 to 2-mm pieces in ice-cold mincing buffer and transferred to a cell sieve with 70-µm pores. The viability of the cell suspension was evaluated by the Trypan Blue Assay (Strober [2001]).
(§5) 100 µL of the obtained cell suspension was mixed at 37 °C with 900 µL Low Melting Agarose (LMA) (0.7% agarose in phosphate-buffered saline [PBS] [Biochrom, Berlin, Germany] without Ca^2+ and Mg^2+). 100 µL of this mixture was transferred to a slide, which had been coated with Normal Melting Agarose (NMA) (0.6% agarose in PBS without Ca^2+ and Mg^2+). The slides were protected with a cover slip and the agarose was hardened at approximately 4 °C. The cover slips were then removed and the slides put over night at 4 °C into lysis buffer (2.5 M NaCl, 125 mM NaOH, 127 mM EDTA, 10 mM Tris/NaOH, pH 10; 1% Triton X-100 and 10% DMSO (v/v), the latter two added before use) in order to lyse the cell membrane, nuclear membrane and remove the histone.
(§6) The then following procedures were performed in a shaded room to minimize UV-mediated DNA damage during the procedures.
(§7) Remaining lysis buffer or FPG buffer was removed by immersing/washing the slides in PBS (without Ca^2+ and Mg^2+).
(§8) The slides were then placed into the electrophoresis chamber, which was cooled and protected from light. Slides were covered with electrophoresis buffer (0.3 M NaOH, 1 mM EDTA, pH > 13) carefully avoiding air bubbles. The DNA was allowed to unwind (20 min). Thereafter the electrophoresis was started (25 V, 300 mA, […], 30 min). The slides were then washed (2 times 5 min) in neutralization buffer (0.4 M Tris/HCl, pH 7.5), dehydrated and fixed in 100% ethanol (1 min), dried at room temperature overnight and stored at room temperature protected from dust.
(§9) Quantitative evaluation of the Comet assays was performed by fluorescence microscopy after DNA staining with ethidium bromide.

rat liver cells = experiment: Comet assay, conventional (no FPG), liver; settings: for Increase of the TI vs vehicle control: p ≤ 0.01; for Hedgehogs/100 cells (mean ± SD) / TI (%) (mean ± SD) / TI (%), mean of medians from 2 slides: liver, 200 mg/kg bw oral, once; for TI (%), mean of medians from 2 slides: individual animals
Protocol: as §1, §2, §3, §4, §5, §6, §7, §8, §9

CCOS(C)(=O)=O [EMS, ethyl methanesulfonate, reference compound]
viability at 24 h ([1]; female, Individual viability (%)): 99%
viability at 24 h ([1]; female, Viability (%) (mean ± SD)): 99 ± 1%
viability at 24 h ([1]; male, Individual viability (%)): 99%
viability at 24 h ([1]; male, Viability (%) (mean ± SD)): 99 ± 1%
Hedgehogs per 100 cells, averaged for both genders (rat lung cells; lung cells, 200 mg/kg): 9 per 100 cells
Increase of the TI vs vehicle control (rat lung cells; female, 200 mg/kg): 21 fold
Hedgehogs/100 cells (mean ± SD) (rat lung cells; female): 9 ± 5 /100 cells
TI (%) (mean ± SD) (rat lung cells; female): 16.7 ± 2.83%
TI (%), mean of medians from 2 slides (rat lung cells; female, 200 mg/kg): 13.2% and 13.0% and 18.7% and 18.8% and 17.8%
Increase of the TI vs vehicle control (rat lung cells; male, 200 mg/kg): 17 fold
Hedgehogs/100 cells (mean ± SD) (rat lung cells; male): 9 ± 4 /100 cells
TI (%) (mean ± SD) (rat lung cells; male): 19.3 ± 5.15%
TI (%), mean of medians from 2 slides (rat lung cells; male, 200 mg/kg): 20.7% and 14.6% and 26.5% and 13.1% and 23.3% and 17.8%
Tail intensity, liver, positive controls of the present study (rat liver cells; 200 mg/kg body weight): 17–19%
Increase of the TI vs vehicle control (rat liver cells; liver cells, female, no FPG, 200 mg/kg): 28 fold
Increase of the TI vs vehicle control (rat liver cells; liver cells, male, no FPG, 200 mg/kg): 27 fold
Hedgehogs per 100 cells, averaged for both genders (rat liver cells; liver cells, no FPG, 200 mg/kg): 7.5 per 100 cells
Hedgehogs/100 cells (mean ± SD) (rat liver cells; female, no FPG): 7 ± 4 /100 cells
TI (%) (mean ± SD) (rat liver cells; female, no FPG): 16.3 ± 4.49%
TI (%), mean of medians from 2 slides (rat liver cells; female, no FPG, 200 mg/kg): 9.1% and 13.6% and 17.5% and 22.4% and 17.8% and 17.3%
Hedgehogs/100 cells (mean ± SD) (rat liver cells; male, no FPG): 8 ± 2 /100 cells
TI (%) (mean ± SD) (rat liver cells; male, no FPG): 18.6 ± 5.97%
TI (%), mean of medians from 2 slides (rat liver cells; male, no FPG, 200 mg/kg): 18.9% and 17.5% and 29.0% and 10.6% and 19.3% and 16.4%
